# Data reported in paper PMC6508677, “Identification of druggable small molecule antagonists of the Plasmodium falciparum hexose transporter PfHT and assessment of ligand access to the glucose permeation pathway via FLAG-mediated protein engineering” (PLoS ONE, 2019).
# Where “and” joins values, the source holds several entries; their conditions need not be identical. Equal values may be shown once. Read-outs that look alike come from different tables or passages of the source.
# What was measured:
# P. falciparum strain 3D7 = assay: P. falciparum growth inhibition assay (Picogreen DNA content, 3 days); format: cell-based, Plasmodium falciparum; settings: for IC50: 3D7, 3D7, Expt 1-3, read-out: IC50 for inhibition of parasite growth, individual experiments; for EC50: P. falciparum 3D7 intraerythrocytic forms, 3 days, mean, read-out: EC50 (IC50 in Fig 4A) for inhibition of parasite growth
# Experimental: P. falciparum strain 3D7 was obtained from the Malaria Research and Reference Reagent Resource Center (MR4, ATCC, Manassas, VA). Parasites were cultured in a 2% suspension of human erythrocytes and RPMI 1640 (Sigma) medium supplemented with 27 mM sodium bicarbonate, 11 mM glucose, 5 mM HEPES, 1 mM sodium pyruvate, 0.37 mM hypoxanthine, 0.01 mM thymidine, 10 μg/ml gentamicin, and 0.5% Albumax (Gibco) at 37°C, 5% O2/ 5% CO2 / 90% N2 atmosphere as previously described.
# Asynchronous P. falciparum cultures were diluted to 1% parasitemia and were treated with compounds at concentrations ranging from 0.195 μM—100 μM. Growth inhibition assays were performed in 100 μl cultures in opaque 96-well plates. Parasite growth was quantified after 3 days by measuring DNA content using Picogreen (Life Technologies)[22]. Fluorescence was measured by a FLUOstar Omega microplate reader (BMG Labtech) at 485 nm excitation and 528 nm emission. IC50 values were calculated by least squares nonlinear regression analysis using GraphPad Prism 6.0 software.
# [1] = tested on: P. falciparum strain 3D7 freed parasites; assay: 2-DG uptake by isolated freed P. falciparum parasites; format: cell-based, Plasmodium falciparum
# Experimental: Glucose uptake by P. falciparum was performed essentially as described. P. falciparum strain 3D7 was cultured in 100 mm tissue culture dishes (Techno Plastic Products) in a 2% suspension of human erythrocytes and RPMI 1640 medium until reaching > 7.5% parasitemia. Cells were pelleted via centrifugation and resuspended in RPMI 1640 medium. To determine the uptake of radiolabeled glucose into the parasite, parasites were isolated from infected erythrocytes by permeablization with saponin (0.05 w/v), followed by centrifugation, aspiration of supernatant and washing of the pellet 3X with saline solution (135 mM NaCl, 2 mM KCl, 25 mM HEPES, 0.2 mM glucose and 1 mM MgCl2; pH 7.1) to remove cellular debris. WU-1 or DMSO vehicle were added to 100 μl parasites (resuspended in saline) 5 min prior to the addition of 100 μl [^14C]2-DOG (0.2- μCi/ml final concentration). 2-DG uptake was stopped after 2 min by layering the entire reaction over 300 μl of an oil mixture (5:4 mix of dibutyl phthalate / dinonyl phthalate) in Eppendorf tubes and centrifuged at 15,850 × g for 2 mins. The ratio of the estimated intracellular concentration of radiolabel relative to the extracellular concentration were calculated as described. Uptake of radiolabeled hexose into HEK293 cells was measured in glucose-free HBSS as described previously. Briefly, cells were plated at 400,000 cells/well overnight at 37°C in 24-well plates pre-treated with PEI. After 30-min incubation at 37°C in glucose-free HBSS in the presence of vehicle or increasing concentrations of compound, 2-DG uptake was measured in glucose-free HBSS for 4 min at 37°C. Cultures were washed in ice-cold 1X PBS and lysed in 0.1% Triton X-100 in 1X PBS. Radiolabeled hexose uptake was determined by liquid scintillation counting (Ultima Gold, Thermo Fisher) and normalized to total protein per well. Uptake data are plotted as percent uptake relative to vehicle-treated cells. Kinetic analyses were performed using the indicated concentrations of substrate and WU-1, with quenching of uptake after 1 min incubation. Incubation times had been previously determined as being in the linear range of time-dependent radiolabeled hexose uptake (2 min for 2-DG uptake into freed parasites; 2 and 4 min for D-Frc and 2-DG uptake HEK cell lines, respectively). Data were fit by least squares nonlinear regression analysis using GraphPad Prism 6.0 software.
# [2] = Plasmodium falciparum, 3D7, 72 h
Compound,IC50 (P. falciparum strain 3D7; Plasmodium falciparum),EC50 (P. falciparum strain 3D7; [2]),"Parasite kill curve raw reading (Picogreen fluorescence), duplicate wells of Expt 1-3 (P. falciparum strain 3D7; concentration 0.195312 (μM))","Parasite kill curve raw reading (Picogreen fluorescence), duplicate wells of Expt 1-3 (P. falciparum strain 3D7; concentration 0.390625 (μM))","Parasite kill curve raw reading (Picogreen fluorescence), duplicate wells of Expt 1-3 (P. falciparum strain 3D7; concentration 0.78125 (μM))","Parasite kill curve raw reading (Picogreen fluorescence), duplicate wells of Expt 1-3 (P. falciparum strain 3D7; concentration 1.5625 (μM))","Parasite kill curve raw reading (Picogreen fluorescence), duplicate wells of Expt 1-3 (P. falciparum strain 3D7; concentration 12.5 (μM))","Parasite kill curve raw reading (Picogreen fluorescence), duplicate wells of Expt 1-3 (P. falciparum strain 3D7; concentration 25 (μM))",EC50 (P. falciparum strain 3D7),"Parasite kill curve raw reading (Picogreen fluorescence), duplicate wells of Expt 1-3 (P. falciparum strain 3D7; concentration 3.125 (μM))","Parasite kill curve raw reading (Picogreen fluorescence), duplicate wells of Expt 1-3 (P. falciparum strain 3D7; concentration 6.25 (μM))","Parasite kill curve raw reading (Picogreen fluorescence), duplicate wells of Expt 1-3 (P. falciparum strain 3D7; concentration 50 (μM))","2-DG uptake by freed parasites (normalised to 100), AVE per experiment ([1]; 0.001 µM WU-1)","2-DG uptake by freed parasites (normalised to 100), AVE per experiment ([1]; 8.33 µM WU-1)","2-DG uptake by freed parasites (normalised to 100), AVE per experiment ([1]; 25 µM WU-1)","2-DG uptake by freed parasites (normalised to 100), AVE per experiment ([1]; 75 µM WU-1)","2-DG uptake by freed parasites (normalised to 100), AVE per experiment ([1]; 225 µM WU-1)","IC50 ([1]; Expt 1-3, read-out: IC50 for 2-DG uptake by freed parasites, individual experiments)","IC50 ([1]; Plasmodium falciparum, 3D7, Expt 1-3, read-out: IC50 for 2-DG uptake by freed parasites, individual experiments)","IC50 ([1]; Plasmodium falciparum, 3D7, isolated P. falciparum trophozoites, mean, read-out: IC50 for 2-DG uptake by freed parasites)"
"COc1c(Br)cc([N+](=O)[O-])c(OC)c1C(=O)NC(=O)Nc1c(C)cccc1Cl [WU-2, 3-(3-bromo-2,6-dimethoxy-5-nitrobenzoyl)-1-(2-chloro-6-methylphenyl)urea]",21.3 µM,22.8 ± 0.8 µM,56098 and 51137 and 60240 and 31267.2 and 43585.2 and 60791,62198 and 51117 and 53186 and 43543.2 and 40121.2 and 61300,60027 and 63524 and 61078 and 36660.2 and 37397.2 and 61445,62718 and 60757 and 53560 and 40753.2 and 35617.2 and 59505,44791 and 46211 and 39233 and 29745.2 and 34796.2 and 56088,31771 and 33221 and 31489 and 18075.2 and 22893.2 and 29768,–,–,–,–,–,–,–,–,–,–,–,–
"Cc1ccc(S(=O)(=O)CCNC(=O)c2c(-c3c(Cl)cccc3Cl)noc2C)cc1 [WU-1, 3-(2,6-dichlorophenyl)-5-methyl-N-[2-(4-methylbenzenesulfonyl)ethyl]-1,2-oxazole-4-carboxamide]",4.66 µM,5.5 ± 0.6 µM,31647.2 and 35553.2 and 49650 and 55614 and 44370 and 49901,38759.2 and 38857.2 and 52621 and 61368 and 45376 and 55663,33807.2 and 31780.2 and 49005 and 55418 and 44284 and 47486,30912.2 and 34557.2 and 48254 and 53201 and 42714 and 48519,–,7109.17 and 9009.17 and 13213 and 12190 and 10238 and 11917,5.49 µM,26767.2 and 25415.2 and 46950 and 47685 and 35273 and 35563,20627.2 and 20040.2 and 32177 and 39080 and 23717 and 27707,6656.17 and 8203.17 and 11766 and 11899 and 11265 and 11133,100.00,54.38 and 56.80 and 54.68,40.52 and 37.08 and 35.20,20.23 and 31.42 and 24.43,17.01 and 18.91 and 19.76,6.6 µM and 4.5 µM,7.2 µM,6.1 ± 0.8 µM
